# In PubChem BioAssay (NCI):
#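 A five-concentration, 48-hour dose response in 96-well plates underlies each endpoint, interpolated linearly between surrounding concentrations. Here, GI50 denotes the concentration required for 50% inhibition of growth. At the TGI there is no net growth.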
# Columns and labels:
# Assay in all cases: NCI-60 cell line screen, 48 h
# A549 NSCLC = tested on: A549 NSCLC
# DU-145 prostate = tested on: DU-145 prostate
# SK-MEL-28 melanoma = tested on: SK-MEL-28 melanoma
# T-47D breast = tested on: T-47D breast
# A498 renal = tested on: A498 renal
# KM20L2 colon = tested on: KM20L2 colon
# M19-MEL melanoma = tested on: M19-MEL melanoma
# DMS 114 small cell lung = tested on: DMS 114 small cell lung
# SNB-78 CNS = tested on: SNB-78 CNS
# DMS 273 small cell lung = tested on: DMS 273 small cell lung
# DLD-1 colon = tested on: DLD-1 colon
# LXFL 529 NSCLC = tested on: LXFL 529 NSCLC
Compound,TGI (A549 NSCLC) [µM],TGI (DU-145 prostate) [µM],TGI (SK-MEL-28 melanoma) [µM],TGI (T-47D breast) [µM],TGI (A498 renal) [µM],further results
NS(=O)(=O)c1ccc(NNC(=O)c2cccc3c(=O)c4ccccc4[nH]c23)cc1,> 100,> 100,> 100,> 100,–,–
C1CNCCN2CCCNCCN(C1)CC2,> 100,> 100,> 100,> 100,> 100,–
Clc1cc2nc(C3CCCO3)[nH]c2cc1Cl (stereo not drawn),> 100,–,> 100,> 100,–,–
O=C1/C(=C/c2ccc(O)cc2)NC(=S)N1CN1CCCCC1,> 100,> 100,> 100,–,> 100,–
CC1=C(C)C(=O)OC(C(C)(O)C2(O)CCC3(O)C4CC(Cl)C5(O)C(O)C=CC(=O)C5(C)C4CCC32C)C1 (stereo not drawn),> 100,> 100,> 100,> 100,> 100,–
c1ccc(Cc2cccc3cc(-c4ccc(-c5ccccc5)cc4)[nH]c23)cc1,> 100,> 100,> 100,> 100,–,–
CN(Cc1cnc2nc(N)nc(N)c2n1)c1ccc(C(=O)NC(CCS(=O)(=O)O)C(=O)O)cc1 (stereo not drawn),> 100,–,> 100,> 100,> 100,–
CN(c1c(Cl)cccc1Cl)S(=O)(=O)c1ccccc1[N+](=O)[O-],> 100,> 100,> 100,> 100,–,–
COc1ccc(-c2cc(-c3ccccc3)n(C3OC(COC(C)=O)C(OC(C)=O)C(OC(C)=O)C3OC(C)=O)c(=S)c2C#N)cc1 (stereo not drawn),39.3,23.9,25.1,25.7,–,–
Cc1nn2c(N)cc(=O)nc2nc1/C=C/c1ccc(N(C)C)cc1,> 100,> 100,> 100,> 100,–,–
NC(CCCCCP(=O)(O)O)C(=O)O (stereo not drawn),> 100,> 100,> 100,> 100,–,–
C/C(CC(O)(C(F)(F)F)C(F)(F)F)=N\N,> 10,> 10,> 10,> 10,> 10,–
CN(C)c1cccc(-c2cc(=O)c3ccccc3[nH]2)c1,> 100,–,> 100,–,–,GI50 (KM20L2 colon): 34.5 µM; TGI (KM20L2 colon): > 100 µM; TGI (M19-MEL melanoma): > 100 µM; GI50 (DMS 114 small cell lung): 46 µM; TGI (DMS 114 small cell lung): > 100 µM; TGI (SNB-78 CNS): > 100 µM; TGI (DMS 273 small cell lung): > 100 µM; TGI (DLD-1 colon): > 100 µM; TGI (LXFL 529 NSCLC): > 100 µM
COCCc1c(C)c(C#N)c2n(C)c3ccccc3n2c1=O,> 10,> 10,> 10,> 10,> 10,–
COc1cc(/C=C2\C(=O)N(c3cccc(Cl)c3)C(c3ccccc3)S2(=O)=O)cc(OC)c1OC (stereo not drawn),> 100,> 100,> 100,> 100,> 100,–
ON=C1CCCCC(=NO)CCCC1,> 100,> 100,> 100,> 100,> 100,–
CCN(CC)CCn1ncc2ccc3c(c(=O)c4cccnc4n3CCN(CC)CC)c21,> 10,> 8.66,4.01,> 9.48,2.24,–

Compound,TGI (A549 NSCLC) [µM],TGI (DU-145 prostate) [µM],TGI (SK-MEL-28 melanoma) [µM],TGI (T-47D breast) [µM],TGI (A498 renal) [µM],further results
C=C1C(=O)OC2/C=C(\C)CC/C=C(/C)CC(OC(=O)/C(=C/CO)CO)C12 (stereo not drawn),> 100,33.1,77.2,–,–,–
COc1cc2c(cc1C)NC(=O)/C2=C/c1c(Cl)[nH]c2cc(C)c(OC)cc12,28.7,14.8,24,25.8,23.1,–
O=C(CSc1nc2ccc(I)cc2c(=O)n1Cc1ccccc1)N/N=C/c1ccccc1,> 100,> 100,> 100,79.9,43.7,–
O=C(ON=c1c2ccccc2ccc2ccccc12)c1cc([N+](=O)[O-])cc([N+](=O)[O-])c1,> 100,> 100,> 100,–,–,–
O=C(NC(=O)c1cn(CCN2CCNCC2)c(=O)[nH]c1=O)OCc1ccccc1,> 100,–,–,–,–,TGI (M19-MEL melanoma): > 100 µM; TGI (DMS 114 small cell lung): > 100 µM; TGI (SNB-78 CNS): > 100 µM; TGI (DLD-1 colon): > 100 µM; TGI (LXFL 529 NSCLC): > 100 µM
C/C(Cl)=N\OC(=O)Nc1ccc([N+](=O)[O-])cc1,47.5,31.8,31.5,36.8,30.5,–
CN1CCc2c(sc3nc(Nc4ccccc4)n(N)c(=O)c23)C1,> 100,> 100,–,> 100,> 100,–
CCN(CC)CCN1C(=O)c2cccc3c(-c4ccc5c(c4)ncn5C4CCCCC4)ccc(c23)C1=O,–,3.2,3.1,6.22,3.22,GI50 (DU-145 prostate): 1.59 µM; GI50 (SK-MEL-28 melanoma): 1.63 µM; GI50 (A498 renal): 1.65 µM; GI50 (T-47D breast): 1.65 µM
N#CS/C(C(Cl)=C(Cl)Cl)=C(/Cl)[N+](=O)[O-],53.8,27.8,3.45,4.86,38.2,–
O=C(N/N=C(/COc1cccc(Cl)c1)N=Cc1ccncc1)c1ccncc1,> 100,> 100,> 100,> 100,> 100,–
Nn1c(CNc2ccc(-c3nnc(Nc4ccc(Cl)cc4)n3N)cc2)nnc1Nc1ccc(Cl)cc1,> 100,> 100,> 100,–,> 100,–
COc1ccc2c(c1)/C(=C(\C(Cl)=C(\Cl)N1CCCCC1)[N+](=O)[O-])N2,> 100,> 100,> 100,> 100,> 100,–
CCCCCCc1nn2c(-c3ccc(C)cc3)nnc2s1,> 100,> 100,> 100,> 100,> 100,–
CCOC(=O)C(Cc1ccc2c(c1)CCC2)(Cc1ccc2c(c1)CCC2)C(=O)OCC,> 100,> 100,> 100,> 100,> 100,–
CSC1=N/C(=C\c2cccs2)C(=O)N1CN1CCOCC1,> 100,> 100,> 100,–,> 100,–
C=CCN1CCC(OC(=O)C(O)(/C=C\CC)C2CCCC2)CC1 (stereo not drawn),> 100,> 100,> 100,> 100,> 100,–
